# Molecular target: human RORgammaT-Ligand Binding Domain (LBD) (Homo sapiens (Human), UniProt P51449)
# Assay: RORγ-Ligand Binding Domain TR-FRET Assay (co-activator peptide SRC1_2 recruitment)
# Format: biochemical
# Conditions: HIS-tagged RORγ-LBD 3 nM, biotinylated SRC1 LXXLL peptide 100 nM, incubated overnight at 4° C., 665 nm/615 nm ratio
# From the text: Activation of RORgammaT activity can be measured using, e.g., a biochemical TR-FRET assay. In such an assay, interaction of cofactor-derived peptides with human RORgammaT-Ligand Binding Domain (LBD) can be measured.
# To identify novel antagonists of RORgammaT, an assay was developed which employs the interaction of RORgammaT with its co-activator peptide SRC1_2. […] The RORγ-Ligand Binding Domain TR-FRET Assay was run according to the following protocol.
# HIS-tagged RORγ-LBD protein was recombinantly expressed in Escherichia coli. The RORγ-LBD protein was purified by Ni^2+-affinity resin. Purified protein was then diluted in assay buffer (50 mM Tris pH 7.0, 50 mM KCl, 1 mM EDTA, 0.1 mM DTT, 100 μg/mL bovine serum albumin, delipidated) to obtain a RORγ-LBD final concentration of 3 nM.
# Compounds to be tested were injected to the 384-well assay plate using Acoustic Droplet Ejection technology by Echo 550 liquid handler (Labcyte, CA).
# Chain of human RORgammaT-Ligand Binding Domain (LBD) (P51449 269-508): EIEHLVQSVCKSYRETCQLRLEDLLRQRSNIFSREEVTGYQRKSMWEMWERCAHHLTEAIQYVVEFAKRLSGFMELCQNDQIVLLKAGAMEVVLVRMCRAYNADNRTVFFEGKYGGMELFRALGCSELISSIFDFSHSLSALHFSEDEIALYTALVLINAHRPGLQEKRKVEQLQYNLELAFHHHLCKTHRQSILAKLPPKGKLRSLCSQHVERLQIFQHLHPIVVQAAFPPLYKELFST
row,IC50 [µM],Structure (SMILES)
1,0.00871,"COc1cc(S(=O)(=O)N2C[C@H]([C@H]3C[C@H]3C(=O)O)Oc3ccc(NC(=O)OC(C)(C)C(F)(F)F)cc32)ccc1F (single isomer, unassigned) [Example 22M, (1R,2S or 1R,2R or 1S,2S or 1S,2R)-2-((S)-4-((4-fluoro-3-methoxyphenyl)sulfonyl)-6-((((1,1,1-trifluoro-2-methylpropan-2-yl)oxy)carbonyl)amino)-3,4-dihydro-2H-benzo[b][1,4]oxazin-2-yl)cyclopropanecarboxylic acid]"
2,0.0149,"Cc1nn(C(F)F)cc1S(=O)(=O)N1C[C@H](CC(C)(C)C(=O)O)Oc2ccc(NC(=O)OC(C)(C)C(F)(F)F)cc21 [Example 12o, 3-[(2S)-4-{[1-(difluoromethyl)-3-methyl-1H-pyrazol-4-yl]sulfonyl}-6-{[(2,2,2-trifluoro-1,1-dimethylethoxy)carbonyl]ami-no}-3,4-dihydro-2H-1,4-benzoxazin-2-yl]-2,2-dimethylpropanoic acid]"
3,0.00373,"COc1cc(S(=O)(=O)N2C[C@H](CCC(=O)O)Oc3ccc(NC(=O)O[C@H](C)C(C)(C)C)cc32)ccc1F (single isomer, unassigned) [Example 24D, 3-{(2S)-4-[(4-fluoro-3-methoxyphenyl)sulfonyl]-6-[({[(1S or 1R)-1,2,2-trimethylpropyl]oxy}cxarbonyl)amino]-3,4-dihydro-2H-1,4-benzoxazin-2-yl}propanoic acid]"
4,0.0164,"CCc1nc(S(=O)(=O)N2C[C@H](CC(C)(C)C(=O)O)Oc3ccc(NC(=O)OC(C)(C)C(F)(F)F)cc32)c(OC(C)C)s1 [Example 12S, 3-[(2S)-4-{[2-ethyl-5-(1-methylethoxy)-1,3-thiazol-4-yl]sulfonyl}-6-{[(2,2,2-trifluoro-1,1-dimethylethoxy)carbonyl]ami-no}-3,4-dihydro-2H-1,4-benzoxazin-2-yl]-2,2-dimethylpropanoic acid]"
5,0.0144,"CC(C)(C[C@H]1CN(S(=O)(=O)c2c(Cl)nn3c2CCCC3)c2cc(NC(=O)OC(C)(C)C(F)(F)F)ccc2O1)C(=O)O [Example 12Y, 3-[(2S)-4-[(2-chloro-4,5,6,7-tetrahydropyrazolo[1,5-a]pyridin-3-yl)sulfonyl]-6-{[(2,2,2-trifluoro-1,1-dimethylethoxy)carbonyl]ami-no}-3,4-dihydro-2H-1,4-benzoxazin-2-yl]-2,2-dimethylpropanoic acid]"
6,0.008,"CC(C)(OC(=O)Nc1ccc2c(c1)N(S(=O)(=O)c1cccc(C3CC3)c1)C[C@H](CCC(=O)O)O2)C(F)(F)F [Example 6AC, (S)-3-(4-((3-cyclopropylphenyl)sulfonyl)-6-((((1,1,1-trifluoro-2-methylpropan-2-yl)oxy)carbonyl)amino)-3,4-dihydro-2H-benzo[b][1,4]oxazin-2-yl)propanoic acid]"
7,0.0119,"CCn1cc(S(=O)(=O)N2C[C@H](CCC(=O)O)Oc3ccc(NC(=O)OC(C)(C)C(F)(F)F)cc32)c(OC(F)F)n1 [Example 6BC, (S)-3-(4-((3-(difluoromethoxy)-1-ethyl-1H-pyrazol-4-yl)sulfonyl)-6-((((1,1,1-trifluoro-2-methylpropan-2-yl)oxy)carbonyl)amino)-3,4-dihydro-2H-benzo[b][1,4]oxazin-2-yl)propanoic acid]"
8,0.0101,"CC(C)(OC(=O)Nc1cc(F)c2c(c1)N(S(=O)(=O)c1ccnc(C(F)(F)F)c1)C[C@H](CCC(=O)O)O2)C(F)(F)F [Example 29H, 3-[(2S)-8-fluoro-6-{[(2,2,2-trifluoro-1,1-dimethylethoxy)carbonyl]ami-no}-4-{[2-(trifluoromethyl)pyridin-4-yl]sulfonyl}-3,4-dihydro-2H-1,4-benzoxazin-2-yl]propanoic acid]"
9,0.0104,"COc1cc(S(=O)(=O)N2C[C@H](CC(C)(CO)C(=O)O)Oc3ccc(NC(=O)OC(C)(C)C(F)(F)F)cc32)ccc1F (single isomer, unassigned) [Example 18L, (S or R)-3-((S)-4-((4-fluoro-3-methoxyphenyl)sulfonyl)-6-((((1,1,1-trifluoro-2-methylpropan-2-yl)oxy)carbonyl)amino)-3,4-dihydro-2H-benzo[b][1,4]oxazin-2-yl)-2-(hydroxymethyl)-2-methylpropanoic acid]"
10,0.0114,"CCn1cc(S(=O)(=O)N2C[C@H](CCC(=O)O)Oc3ccc(NC(=O)OC(C)(C)C(F)(F)F)cc32)c(OCCO)n1 (stereo in doubt) [Example 6CA, 3-(4-{[1-ethyl-3-(2-hydroxyethoxy)-1H-pyrazol-4-yl]sulfonyl}-6-{[(2,2,2-trifluoro-1,1-dimethylethoxy)carbonyl]amino}-3,4-dihydro-2H-1,4-benzoxazin-2-yl)propanoic acid]"
11,0.0102,"C[C@H](C[C@H]1CN(S(=O)(=O)c2cccc(C3CC3)c2)c2cc(NC(=O)OC(C)(C)C(F)(F)F)ccc2O1)C(=O)O (single isomer, unassigned) [Example 6CW, (R or S)-3-((S)-4-((3-cyclopropylphenyl)sulfonyl)-6-((((1,1,1-trifluoro-2-methylpropan-2-yl)oxy)carbonyl)amino)-3,4-dihydro-2H-benzo[b][1,4]oxazin-2-yl)-2-methylpropanoic acid]"
12,0.0144,"CCOc1sc(C2CC2)nc1S(=O)(=O)N1C[C@H](CCC(=O)O)Oc2ccc(NC(=O)OC(C)(C)C(F)(F)F)cc21 [Example 6CD, 3-[(2S)-4-[(2-cyclopropyl-5-ethoxy-1,3-thiazol-4-yl)sulfonyl]-6-{[(2,2,2-trifluoro-1,1-dimethylethoxy)carbonyl]amino}-3,4-dihydro-2H-1,4-benzoxazin-2-yl]propanoic acid]"
13,0.0495,"CC[C@H](C[C@H]1CN(S(=O)(=O)c2cn(CC)nc2OCCO)c2cc(NC(=O)OC(C)(C)C(F)(F)F)ccc2O1)C(=O)O (single isomer, unassigned) [Example 10L, (R or S)-2-(((S)-4-((1-ethyl-3-(2-hydroxyethoxy)-1H-pyrazol-4-yl)sulfonyl)-6-((((1,1,1-trifluoro-2-methylpropan-2-yl)oxy)carbonyl)amino)-3,4-dihydro-2H-benzo[b][1,4]oxazin-2-yl)methyl)butanoic acid]"
14,0.0039,"COc1cc(S(=O)(=O)N2C[C@H](CCC(=O)O)Oc3c(F)cc(NC(=O)OC(C)(C)C(F)(F)F)cc32)ccc1F [Example 29B, 3-[(2S)-8-fluoro-4-[(4-fluoro-3-methoxyphenyl)sulfonyl]-6-{[(2,2,2-trifluoro-1,1-dimethylethoxy)carbonyl]ami-no}-3,4-dihydro-2H-1,4-benzoxazin-2-yl]propanoic acid]"
15,0.012,"COc1cc(S(=O)(=O)N2C[C@H](CCC(=O)O)Oc3ccc(NC(=O)OC4(C(F)(F)F)CCC4)cc32)ccc1F [Example 24B, 3-{(2S)-4-[(4-fluoro-3-methoxyphenyl)sulfonyl]-6-[({[1-(trifluoromethyl)cyclobutyl]oxy}carbonyl)amino]-3,4-dihydro-2H-1,4-benzoxazin-2-yl}propanoic acid]"
16,0.0145,"Cc1cccc(S(=O)(=O)N2C[C@H](C[C@@H](C)C(=O)O)Oc3ccc(NC(=O)OC(C)(C)C(F)(F)F)cc32)c1 (single isomer, unassigned) [Example 6CK, (S or R)-2-methyl-3-((S)-4-(m-tolylsulfonyl)-6-((((1,1,1-trifluoro-2-methylpropan-2-yl)oxy)carbonyl)amino)-3,4-dihydro-2H-benzo[b][1,4]oxazin-2-yl)propanoic acid]"
17,0.0149,"C[C@@H](C[C@H]1CN(S(=O)(=O)c2ccnc(C(F)(F)F)c2)c2cc(NC(=O)OC(C)(C)C(F)(F)F)ccc2O1)C(=O)O (single isomer, unassigned) [Example 6DA, (R or S)-2-methyl-3-((S)-6-((((1,1,1-trifluoro-2-methylpropan-2-yl)oxy)carbonyl)amino)-4-((2-(trifluoromethyl)pyridin-4-yl)sulfonyl)-3,4-dihydro-2H-benzo[b][1,4]oxazin-2-yl)propanoic acid]"
18,0.0271,"COc1cncc(S(=O)(=O)N2C[C@H](CCC(=O)O)Oc3ccc(NC(=O)OC(C)(C)C(F)(F)F)cc32)c1 [Example 6BY, 3-[(2S)-4-[(5-methoxypyridin-3-yl)sulfonyl]-6-{[(2,2,2-trifluoro-1,1-dimethylethoxy)carbonyl]amino}-3,4-dihydro-2H-1,4-benzoxazin-2-yl]propanoic acid]"
19,0.00771,"Cc1cc(S(=O)(=O)N2C[C@H](CCC(=O)O)Oc3ccc(NC(=O)OC(C)(C)C(F)(F)F)cc32)c(F)cc1F [Example 6AW, (S)-3-(4-((2,4-difluoro-5-methylphenyl)sulfonyl)-6-((((1,1,1-trifluoro-2-methylpropan-2-yl)oxy)carbonyl)amino)-3,4-dihydro-2H-benzo[b][1,4]oxazin-2-yl)propanoic acid]"
20,0.015,"CC(C)(OC(=O)Nc1ccc2c(c1)N(S(=O)(=O)c1cccc(S(C)(=O)=O)c1)C[C@H](CCC(=O)O)O2)C(F)(F)F [Example 6X, (S)-3-(4-((3-(methylsulfonyl)phenyl)sulfonyl)-6-((((1,1,1-trifluoro-2-methylpropan-2-yl)oxy)carbonyl)amino)-3,4-dihydro-2H-benzo[b][1,4]oxazin-2-yl)propanoic acid]"
21,0.0057,"CC(C)(OC(=O)Nc1cc(F)c2c(c1)N(S(=O)(=O)c1ccc(F)c(Cl)c1)C[C@H](CCC(=O)O)O2)C(F)(F)F [Example 29F, 3-[(2S)-4-[(3-chloro-4-fluorophenyl)sulfonyl]-8-fluoro-6-{[(2,2,2-trifluoro-1,1-dimethylethoxy)carbonyl]ami-no}-3,4-dihydro-2H-1,4-benzoxazin-2-yl]propanoic acid]"
